B1: Thioredoxin-Hispatch Tg PP2C (protein)
chain: MKSSAEIRRTMDVPPTIHVPLPPTSYPAFDAAIFTDIGGRKHQEDRFTLCPQLVPGRDDCAFFGVFDGTVGDFASENVKDLVVPQLISSPAWQEVTEMLRSDVPATEVDEKLPQLLDQAVDDMYKNADNELVKMCEQLNKDYASSTSVTAVLAKGFVAVGHLGDSRIAMGVETPNGLNCEFLTVDHKPDMPHEKLRIMRNGGSVEYLHNHNNKPFIRGGDFSFRKSRGEQPMQLQYSRALGGKDLKMYGLSNQPDVRVVRVTPQHRVMILATDGLWDVMFAAQAVEIAMQARQEGRNPAQALVEMTLAEQQSRNQSADNITAMTVFFKKTD

Tests used:
[1] = tested on: parasite kinase activity which phosphorylates Toxofilin; experiment: Kinase reaction on rToxofilin with tachyzoïte cytosolic fraction, with pharmacological inhibitors; format: biochemical, Toxoplasma gondii; details: inhibitors added 15 min before starting the kinase reaction: heparin 20 μg per ml, GTP 200 μM, DRB 100 μM, [γ32P] ATP, 30° C.
Experimental: Kinase reaction: 2 μg of immobilized rToxofilin on protein G-dynabeads were washed in kinase buffer before to be incubated with a tachyzoïte cytosolic fraction prepared in kinase buffer ([…]) and precleared on protein G-dynabeads. The reaction was started by adding 100 μM of Na2 ATP and 10 μCi of [γ^32P] ATP (3000 Ci/mmol, NEN life science product, Inc) (15 min, 30° C.). Unbound materials and unincorporated [γ^32P] ATP were washed out with 200 volumes of kinase buffer containing with TX-100 (0.5% vol/vol) followed by 100 volumes of kinase buffer. Toxofilin and bound proteins were eluted in SDS-PAGE sample buffer prior to electrophoresis and radioactivity scan (phosphoimager, Molecular Dynamics). Toxofilin phosphorylation was quantified using NIH Image Quant software.
To characterize the kinase activity responsible for Toxofilin phosphorylation, three types of experiments were carried out:
1) Pharmacological inhibitors such as heparin (20 μg per ml, Sigma), GTP (200 μM, Sigma), 5,6-dichloro-1-B-D-ribofuranosylbenzimidazole (100 μM, Calbiochem) or staurosporine (1 μM, Calbiochem) were added 15 min before starting the kinase reaction.

[2] = tested on: recombinant Toxofilin (r-Toxofilin) without GST
[3] = target: recombinant Toxofilin (r-Toxofilin) without GST; remark: listed apart in the source

Row | Molecule | inhibition of the parasite kinase activity which phosphorylates Toxofilin [1] | also measured
1 | Nc1nc2c(ncn2[C@@H]2O[C@H](COP(=O)(O)OP(=O)(O)OP(=O)(O)O)[C@@H](O)[C@H]2O)c(=O)[nH]1 [GTP] | inhibited | 
2 | heparin [soluble heparin] | inhibited | 
3 | Human casein kinase II |  | phosphorylation of Toxofilin [2]: Human casein kinase II works well at phosphorylating Toxofilin
4 | OC[C@H]1O[C@@H](n2cnc3cc(Cl)c(Cl)cc32)[C@H](O)[C@@H]1O [DRB, 5,6-dichloro-1-B-D-ribofuranosylbenzimidazole] | inhibited | 
5 | B1 |  | in vitro phosphatase assay on 32P-phosphorylated Toxofilin [3]: Toxofilin is a major substrate for type 2C phosphatase

Source: US6949352B2, “Serine-threonine phosphatase protein of a parasitic organism of the Apicomplexa phylum, applications in therapeutics” (Centre National de la Recherche Scientifique (CNRS), priority 2001, dated 2005)
